From PMC4657098, “A Review of the Updated Pharmacophore for the Alpha 5 GABA(A) Benzodiazepine Receptor Model” (International Journal of Medicinal Chemistry, 2015)
Like-named read-outs stand apart in the source and are kept apart here.

Assays:
[1] = test system: guinea pig airway smooth muscle; conditions: 1 μM substance P; p < 0.01; cited from earlier work
[2] = test system: α1β3γ2 GABAA receptor; conditions: baseline 100, cited from earlier work
[3] = test system: ventral HPC neurons; conditions: 0.1 mg/kg, i.v.; MAM- and saline-treated animals; cited from earlier work
[4] = test system: human airway smooth muscle; conditions: 50 μM; p < 0.01; cited from earlier work
[5] = test system: dopamine neurons in the VTA; conditions: cited from earlier work
[6] = test system: MAM rats; conditions: cited from earlier work
[7] = test system: primates; conditions: cited from earlier work
[8] = test system: human airway smooth muscle cells; conditions: whole cell patch clamp; cited from earlier work
[9] = target: T1, α6β2γ2 GABAA receptor (Homo sapiens, UniProt P18507+Q16445); experiment: Radioligand binding (McKernan and Atack), α6β2γ2; conditions: Table 3; αxβ2γ2; means of two determinations; read-out: Binding affinity α6
T1 construct: expressed in transfected cells; host or cells: HEK cells
Method: (§1) Transfected HEK cells (beta2 gamma2 and desired alpha subtype) were harvested into phosphate-buffered saline, centrifuged at 3,000 g, and stored at −70°C until required. On the day of the assay, pellets were thawed and resuspended in sufficient volume of 50 mM Tris/acetate (pH 7.4 at 4°C) to give a total binding of approximately 1500–2000 dpm. […] Total assay volume was 0.5 mL and assays were carried out in 96-well plates and incubation time started by the addition of 0.1 mL of resuspended cell membranes. Following incubation for 1 hour at 4°C, assays were terminated by filtration through GF/B filters, washed with 10 mL ice cold buffer, dried, and then counted using a liquid scintillation counter. […] We have previously reported the synthesis of the following.

[10] = test system: α3β3γ2 GABAA receptor; conditions: baseline 100, cited from earlier work
[11] = test system: rodents; conditions: one study in rodents; cited from earlier work
[12] = test system: α2β3γ2 GABAA receptor; conditions: baseline 100, cited from earlier work
[13] = target: T2, α5β3γ2 GABAA receptor (Homo sapiens, UniProt P18507+P31644); conditions: baseline 100, cited from earlier work
T2 construct: expressed in transfected cells; host or cells: Xenopus oocytes

[14] = target: T3, α4β2γ2 GABAA receptor (Homo sapiens, UniProt P18507+P48169); experiment: Radioligand binding (McKernan and Atack), α4β2γ2; conditions: Table 3; αxβ2γ2; means of two determinations; read-out: Binding affinity α4
T3 construct: expressed in transfected cells; host or cells: HEK cells
Method: as §1

[15] = test system: human airway smooth muscle cells; conditions: 10 μM; bradykinin 1 μM; cited from earlier work

T2 sequence (P28472 26-473): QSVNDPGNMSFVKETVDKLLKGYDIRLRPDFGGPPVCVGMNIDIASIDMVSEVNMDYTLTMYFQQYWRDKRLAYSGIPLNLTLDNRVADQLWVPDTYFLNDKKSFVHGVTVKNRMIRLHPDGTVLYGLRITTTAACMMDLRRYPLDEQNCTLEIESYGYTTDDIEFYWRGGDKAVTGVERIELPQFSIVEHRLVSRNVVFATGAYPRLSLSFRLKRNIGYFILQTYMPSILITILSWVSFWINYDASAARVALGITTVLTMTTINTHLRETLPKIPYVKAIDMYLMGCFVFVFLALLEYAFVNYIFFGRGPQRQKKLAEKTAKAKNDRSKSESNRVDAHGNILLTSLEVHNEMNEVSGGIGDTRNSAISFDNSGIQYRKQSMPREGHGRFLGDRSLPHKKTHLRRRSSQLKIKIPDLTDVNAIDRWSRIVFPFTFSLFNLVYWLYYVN
T2 sequence (P31644 32-462): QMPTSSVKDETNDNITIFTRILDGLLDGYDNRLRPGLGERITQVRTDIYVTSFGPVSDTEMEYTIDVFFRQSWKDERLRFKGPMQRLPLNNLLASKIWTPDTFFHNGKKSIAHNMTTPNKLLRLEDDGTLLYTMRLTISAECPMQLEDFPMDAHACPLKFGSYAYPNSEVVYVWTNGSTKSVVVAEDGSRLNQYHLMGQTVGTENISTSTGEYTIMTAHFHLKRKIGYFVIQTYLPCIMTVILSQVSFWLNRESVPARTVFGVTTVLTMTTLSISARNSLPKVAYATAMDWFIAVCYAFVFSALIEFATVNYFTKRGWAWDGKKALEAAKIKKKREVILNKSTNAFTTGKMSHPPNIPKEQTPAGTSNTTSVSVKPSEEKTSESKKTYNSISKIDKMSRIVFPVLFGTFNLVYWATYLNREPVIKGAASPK
T2 sequence (P18507 40-475): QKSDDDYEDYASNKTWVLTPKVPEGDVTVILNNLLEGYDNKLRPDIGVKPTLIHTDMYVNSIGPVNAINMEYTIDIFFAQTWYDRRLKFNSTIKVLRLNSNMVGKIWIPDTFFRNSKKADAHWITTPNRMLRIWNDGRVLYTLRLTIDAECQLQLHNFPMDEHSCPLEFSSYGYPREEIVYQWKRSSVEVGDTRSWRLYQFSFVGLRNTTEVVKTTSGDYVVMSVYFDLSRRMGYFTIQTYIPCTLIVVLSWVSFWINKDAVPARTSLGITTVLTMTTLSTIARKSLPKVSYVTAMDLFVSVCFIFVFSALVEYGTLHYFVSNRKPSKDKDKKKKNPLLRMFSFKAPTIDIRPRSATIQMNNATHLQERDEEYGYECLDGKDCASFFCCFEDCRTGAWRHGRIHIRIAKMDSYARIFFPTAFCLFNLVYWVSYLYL
T3 sequence (P48169 36-554): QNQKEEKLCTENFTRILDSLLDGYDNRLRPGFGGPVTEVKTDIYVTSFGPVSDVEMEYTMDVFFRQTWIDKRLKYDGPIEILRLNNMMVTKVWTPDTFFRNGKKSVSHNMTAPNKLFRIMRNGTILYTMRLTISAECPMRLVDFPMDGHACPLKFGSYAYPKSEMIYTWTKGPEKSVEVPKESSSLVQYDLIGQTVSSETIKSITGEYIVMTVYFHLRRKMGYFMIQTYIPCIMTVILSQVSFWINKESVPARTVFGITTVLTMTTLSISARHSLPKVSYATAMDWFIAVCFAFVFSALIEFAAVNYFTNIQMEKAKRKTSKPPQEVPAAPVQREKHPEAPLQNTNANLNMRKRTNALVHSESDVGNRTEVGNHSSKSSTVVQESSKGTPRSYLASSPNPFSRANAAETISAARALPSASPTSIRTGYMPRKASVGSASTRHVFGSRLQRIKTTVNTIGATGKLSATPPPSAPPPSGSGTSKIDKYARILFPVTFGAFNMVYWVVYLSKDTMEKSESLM
T3 sequence (P18507 40-475): as the sequence (P18507 40-475) above
T3 sequence (P47870 26-512, further chain): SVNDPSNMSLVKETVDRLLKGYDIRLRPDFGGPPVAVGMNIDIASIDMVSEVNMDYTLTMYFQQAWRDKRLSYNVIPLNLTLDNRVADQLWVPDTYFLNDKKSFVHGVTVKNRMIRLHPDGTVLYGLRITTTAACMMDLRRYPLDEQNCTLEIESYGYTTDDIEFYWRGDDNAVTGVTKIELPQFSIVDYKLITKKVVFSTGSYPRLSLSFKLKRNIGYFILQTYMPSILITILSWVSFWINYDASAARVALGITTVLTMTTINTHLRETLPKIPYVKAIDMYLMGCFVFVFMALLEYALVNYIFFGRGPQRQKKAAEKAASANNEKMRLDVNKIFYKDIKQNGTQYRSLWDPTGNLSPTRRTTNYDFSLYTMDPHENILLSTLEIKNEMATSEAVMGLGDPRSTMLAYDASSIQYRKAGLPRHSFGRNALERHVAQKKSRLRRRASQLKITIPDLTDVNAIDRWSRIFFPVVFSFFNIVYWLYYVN
T1 sequence (P18507 40-475): as the sequence (P18507 40-475) above
T1 sequence (Q16445 20-453): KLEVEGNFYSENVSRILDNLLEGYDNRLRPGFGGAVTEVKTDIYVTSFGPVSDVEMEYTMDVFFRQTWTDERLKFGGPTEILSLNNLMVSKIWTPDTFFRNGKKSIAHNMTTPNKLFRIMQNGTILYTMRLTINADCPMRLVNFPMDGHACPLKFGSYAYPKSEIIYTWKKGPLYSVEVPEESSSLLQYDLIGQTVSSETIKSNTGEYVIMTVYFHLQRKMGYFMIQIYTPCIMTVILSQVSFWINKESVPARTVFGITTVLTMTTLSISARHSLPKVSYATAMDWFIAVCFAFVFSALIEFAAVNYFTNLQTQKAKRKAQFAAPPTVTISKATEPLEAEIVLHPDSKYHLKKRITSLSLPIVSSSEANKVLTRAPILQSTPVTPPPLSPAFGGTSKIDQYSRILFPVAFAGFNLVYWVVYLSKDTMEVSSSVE
T1 sequence (P47870 26-512, further chain): as the sequence (P47870 26-512, further chain) above

## C#Cc1ccc2c(c1)C(c1ccccc1F)=N[C@H](C)c1c(C(=O)OCC)ncn1-2 [SH-053-2′F-R-CH3, (2)]
[1]
  remaining contractile force 30 minutes after a substance P-induced contraction: significantly reduced
[2]; 100 nM
  Efficacy α1 as % of control current: 111 % of control current
[2]; 1 μM
  Efficacy α1 as % of control current: 154 % of control current
[3]
  evoked excitatory response of ventral HPC neurons: decreases
[4]
  isoproterenol (10 nM) mediated relaxation of an acetylcholine EC50 contraction: significantly enhances
[5]; 0.1 mg/kg, i.v.
  dopamine neuron activity in control animals: no effect
  firing rate and burst activity in MAM animals: no effect
  number of spontaneously firing dopamine neurons (cells/track), MAM animals: normalizes the aberrant increase
[5]
  dopamine activity and locomotor response in MAM rats withdrawn from HAL: unresponsive
[5]; hippocampal infusion 1 μM/side
  number of spontaneously firing dopamine neurons (cells/track), MAM animals: normalizes the aberrant increase
  percentage of spikes occurring in bursts, MAM and control animals: significantly reduced
[5]; rat, in vivo
  cells/track in repeatedly haloperidol-treated SAL rats: reversed the haloperidol-induced reduction
  firing rate of dopamine neurons in repeatedly haloperidol-treated SAL rats: increase
  percentage of spikes occurring in bursts, haloperidol-treated SAL and MAM rats: no impact
[6]; 10 mg/kg, i.p.
  locomotor response to D-amphetamine (0.5 mg/kg i.p.), MAM rats: reduced
[6]; rat, in vivo
  locomotor response to D-amphetamine in repeatedly haloperidol-treated SAL animals: reduced
  peak locomotor response in repeatedly haloperidol-treated MAM rats: no effect
[7]
  anxiolytic effect: very weak anxiolytic effect
[8]
  plasma membrane chloride current: induced a Cl^− current
[9]
  Ki: > 5 µM
[10]; 100 nM
  Efficacy α3 as % of control current: 125 % of control current
[10]; 1 μM
  Efficacy α3 as % of control current: 220 % of control current
[11]
  locomotion: decrease in locomotion
[12]; 100 nM
  Efficacy α2 as % of control current: 124 % of control current
[12]; 1 μM
  Efficacy α2 as % of control current: 185 % of control current
[13]; 100 nM
  Efficacy α5 as % of control current: 183 % of control current
[13]; 1 μM
  Efficacy α5 as % of control current: 387 % of control current
[14]
  Ki: > 5 µM
[15]
  bradykinin-induced increase in intracellular calcium: attenuated
